These results are taken from patent publication US11661440B2 (priority 2015, dated 2023).

pIC50: −log10 of the molar value. “Also recorded” adds a separate entry of the source. Ends that are not written are not given here.

In experiment [1] the test system is NMDA receptor. It counts as cell-based, rat.
Experiment [2] has as its target GluN2B recombinant subunit (Rattus norvegicus, UniProt Q00960). Conditions: cited from earlier work.
Experiment [3] addresses NMDA receptor GluN2B subunit (Mus musculus, UniProt Q01097). Conditions: cited from earlier work.

Chain of GluN2B recombinant subunit (Q00960 27-1482, other chains not shown): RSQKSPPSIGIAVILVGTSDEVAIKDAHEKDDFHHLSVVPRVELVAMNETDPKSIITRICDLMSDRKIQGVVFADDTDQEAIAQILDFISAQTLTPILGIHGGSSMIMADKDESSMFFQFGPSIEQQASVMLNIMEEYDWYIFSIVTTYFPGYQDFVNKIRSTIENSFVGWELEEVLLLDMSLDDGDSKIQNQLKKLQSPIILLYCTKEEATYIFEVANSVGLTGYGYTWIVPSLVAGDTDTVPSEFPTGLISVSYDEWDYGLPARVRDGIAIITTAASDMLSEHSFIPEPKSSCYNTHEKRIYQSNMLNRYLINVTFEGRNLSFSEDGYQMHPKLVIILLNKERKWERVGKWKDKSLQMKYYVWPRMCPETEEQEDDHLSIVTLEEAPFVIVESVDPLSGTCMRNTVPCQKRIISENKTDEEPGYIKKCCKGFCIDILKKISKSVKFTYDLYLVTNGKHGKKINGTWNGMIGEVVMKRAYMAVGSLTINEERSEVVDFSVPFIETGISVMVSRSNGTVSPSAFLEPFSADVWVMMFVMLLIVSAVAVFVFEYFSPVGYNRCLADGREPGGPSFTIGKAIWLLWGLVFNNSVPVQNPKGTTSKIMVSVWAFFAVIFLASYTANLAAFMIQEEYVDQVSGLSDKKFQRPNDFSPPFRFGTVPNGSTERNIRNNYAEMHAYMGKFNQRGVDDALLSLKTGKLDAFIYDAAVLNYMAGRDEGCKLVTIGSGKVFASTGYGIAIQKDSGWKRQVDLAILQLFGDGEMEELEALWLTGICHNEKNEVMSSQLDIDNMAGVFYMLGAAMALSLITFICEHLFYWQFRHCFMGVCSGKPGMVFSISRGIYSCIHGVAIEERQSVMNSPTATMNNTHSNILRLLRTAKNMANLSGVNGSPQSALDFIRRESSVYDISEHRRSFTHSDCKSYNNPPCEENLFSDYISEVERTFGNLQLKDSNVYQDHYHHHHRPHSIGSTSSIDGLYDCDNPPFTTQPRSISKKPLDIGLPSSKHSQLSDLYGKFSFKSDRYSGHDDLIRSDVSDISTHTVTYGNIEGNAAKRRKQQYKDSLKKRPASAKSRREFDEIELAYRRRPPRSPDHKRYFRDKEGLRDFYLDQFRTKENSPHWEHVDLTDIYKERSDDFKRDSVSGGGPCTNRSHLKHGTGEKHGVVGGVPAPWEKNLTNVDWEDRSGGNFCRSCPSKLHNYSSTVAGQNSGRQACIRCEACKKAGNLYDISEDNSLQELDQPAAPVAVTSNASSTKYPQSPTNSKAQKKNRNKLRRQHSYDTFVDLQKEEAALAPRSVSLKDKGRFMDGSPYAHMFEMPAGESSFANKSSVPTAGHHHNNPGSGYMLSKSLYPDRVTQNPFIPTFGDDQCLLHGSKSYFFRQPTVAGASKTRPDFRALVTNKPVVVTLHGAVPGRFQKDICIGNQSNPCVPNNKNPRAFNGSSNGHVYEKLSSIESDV
Chain of NMDA receptor GluN2B subunit (Q01097 whole entry, looked up): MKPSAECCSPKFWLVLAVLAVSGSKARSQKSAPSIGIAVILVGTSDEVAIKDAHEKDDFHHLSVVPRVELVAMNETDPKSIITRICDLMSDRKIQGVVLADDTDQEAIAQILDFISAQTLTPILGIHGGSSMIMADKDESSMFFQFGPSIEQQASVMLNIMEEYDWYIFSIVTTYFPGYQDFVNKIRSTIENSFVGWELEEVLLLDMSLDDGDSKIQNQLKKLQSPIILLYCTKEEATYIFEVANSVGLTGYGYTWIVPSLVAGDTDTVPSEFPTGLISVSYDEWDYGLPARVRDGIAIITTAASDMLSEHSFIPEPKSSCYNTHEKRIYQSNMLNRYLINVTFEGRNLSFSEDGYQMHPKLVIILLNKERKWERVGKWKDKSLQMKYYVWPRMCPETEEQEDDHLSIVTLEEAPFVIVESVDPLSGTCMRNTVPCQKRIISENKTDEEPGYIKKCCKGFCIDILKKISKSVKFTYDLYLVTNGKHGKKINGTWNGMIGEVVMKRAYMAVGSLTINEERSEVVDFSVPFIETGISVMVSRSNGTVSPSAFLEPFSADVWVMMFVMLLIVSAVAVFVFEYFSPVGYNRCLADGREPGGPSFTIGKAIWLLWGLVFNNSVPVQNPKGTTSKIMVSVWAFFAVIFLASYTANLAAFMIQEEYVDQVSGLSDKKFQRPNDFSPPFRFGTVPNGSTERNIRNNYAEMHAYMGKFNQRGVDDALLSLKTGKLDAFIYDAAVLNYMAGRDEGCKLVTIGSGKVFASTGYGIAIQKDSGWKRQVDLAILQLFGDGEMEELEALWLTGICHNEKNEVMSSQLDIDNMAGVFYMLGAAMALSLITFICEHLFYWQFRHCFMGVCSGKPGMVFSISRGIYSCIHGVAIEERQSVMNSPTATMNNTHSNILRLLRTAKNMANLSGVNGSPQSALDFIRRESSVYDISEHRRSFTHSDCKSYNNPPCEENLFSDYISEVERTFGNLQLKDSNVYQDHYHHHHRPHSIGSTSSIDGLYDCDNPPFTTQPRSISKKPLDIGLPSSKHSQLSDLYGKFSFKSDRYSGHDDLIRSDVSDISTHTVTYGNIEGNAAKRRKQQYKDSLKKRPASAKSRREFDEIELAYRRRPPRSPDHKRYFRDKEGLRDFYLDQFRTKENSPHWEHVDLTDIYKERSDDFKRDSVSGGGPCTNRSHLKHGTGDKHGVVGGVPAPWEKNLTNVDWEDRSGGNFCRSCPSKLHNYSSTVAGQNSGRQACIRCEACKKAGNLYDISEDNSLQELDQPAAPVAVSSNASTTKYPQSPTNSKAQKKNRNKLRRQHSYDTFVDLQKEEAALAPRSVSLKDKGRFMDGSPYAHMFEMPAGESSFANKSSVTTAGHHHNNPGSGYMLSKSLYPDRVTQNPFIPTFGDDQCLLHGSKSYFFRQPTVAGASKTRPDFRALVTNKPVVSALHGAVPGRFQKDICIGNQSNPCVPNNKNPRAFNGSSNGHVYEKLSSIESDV

Take `C[C@]12N[C@H](Cc3ccccc31)c1ccccc12` [(+)-MK-801, dizocilpine]: in experiment [1], the “blocking of input current due to stimulation by peptide SEQ ID NO: 4” value was “more than 90%”, the “blocking of the response (in words)” value was “almost total blocking of the response” and the “reduction in the response obtained by stimulation with NMDA/glycine” value is given as “more than 50%”.

On to KLGMRSELQIDNDQDAD [SEQ ID NO: 4], for which the “agonist effect: input current evoked by the peptide (in words)” value in experiment [1] is reported as “evoked input current via the NMDA receptor; also recorded: an input current was found”.

For the molecule `C[C@@H](CN1CCC(Cc2ccccc2)CC1)[C@@H](O)c1ccc(O)cc1` [Ro 25-9681], in experiment [1], the “blocking of the response evoked by NMDA/glycine” value is listed as “less than 50%”. The pIC50 in experiment [2] was 8.05.

Turning to GEγγLQγNQγLIRγKSN-NH2 [conantokin-G], the figures for the negative-log IC50 (pIC50) in experiment [2] and in experiment [3] were 7.00 and 6.30, respectively.
